Test results taken from patent publication US20100311592A1, “USE OF 2-IODO-N 4-METHOXY-6-METHYL-1,3,5-TRIAZINE-2-YL CARBAMOYL BENZENESULFONAMIDE AND/OR SALTS THEREOF FOR COMBATING UNDESIRED PLANT GROWTH IN SELECTED USEFUL PLANT CROPS OR NON-CULTIVATED LAND” (Bayer CropScience AG, priority 2007, published 2010).

How the values were obtained:
Assay type in all cases: in vivo
Lolium multiflorum [1] = experiment: Pre-emergence herbicidal activity; conditions: pre-emergence method, application rate of 0.1 kg or less of active substance per hectare, visual scoring after 3 to 4 weeks
Text: (§1) Seeds or rhizome pieces of mono- and dicotyledonous weeds were placed in sandy loam in cardboard pots and covered with soil. The compounds according to the invention, formulated in the form of wettable powders or emulsion concentrates, were then applied to the surface of the covering soil in the form of aqueous suspensions or emulsions at an application rate of 100 to 8001 of water/ha (converted), at various dosages.
(§2) After the treatment, the pots were placed in a greenhouse and kept under good growth conditions for the weeds. Visual scoring of the damage to the plants or the emergence damage was carried out after the emergence of the test plants after a test period of 3 to 4 weeks, by comparison with untreated controls. As shown by the results, the compounds according to the invention have good herbicidal pre-emergence activity against a broad spectrum of weed grasses and broad-leaved weeds.

Matricaria inodora [2] = experiment: Pre-emergence herbicidal activity; conditions: pre-emergence method, application rate of 0.1 kg or less of active substance per hectare, visual scoring after 3 to 4 weeks
Text: as §1, §2

Papaver rhoeas = experiment: Pre-emergence herbicidal activity; conditions: pre-emergence method, application rate of 0.1 kg or less of active substance per hectare, visual scoring after 3 to 4 weeks
Text: as §1, §2

Stellaria media [3] = experiment: Pre-emergence herbicidal activity; conditions: pre-emergence method, application rate of 0.1 kg or less of active substance per hectare, visual scoring after 3 to 4 weeks
Text: as §1, §2

Viola tricolor [4] = experiment: Pre-emergence herbicidal activity; conditions: pre-emergence method, application rate of 0.1 kg or less of active substance per hectare, visual scoring after 3 to 4 weeks
Text: as §1, §2

Abuthilon theophrasti = experiment: Post-emergence action against weeds; conditions: post-emergence method, application rate of 0.1 kg or less of active substance per hectare, visual scoring after about 3 to 4 weeks
Experimental: (§3) Seeds or rhizome pieces of monocotyledonous and dicotyledonous weeds were placed in sandy loam in plastic pots, covered with soil and cultivated in a greenhouse under good growth conditions. Three weeks after sowing, the test plants were treated at the three-leaf stage.

Amaranthus retroflexus = experiment: Post-emergence action against weeds; conditions: post-emergence method, application rate of 0.1 kg or less of active substance per hectare, visual scoring after about 3 to 4 weeks
Experimental: as §3

Ipomoea purpurea = experiment: Post-emergence action against weeds; conditions: post-emergence method, application rate of 0.1 kg or less of active substance per hectare, visual scoring after about 3 to 4 weeks
Experimental: as §3

Lolium multiflorum [5] = experiment: Post-emergence action against weeds; conditions: post-emergence method, application rate of 0.1 kg or less of active substance per hectare, visual scoring after about 3 to 4 weeks
Experimental: as §3

Matricaria inodora [6] = experiment: Post-emergence action against weeds; conditions: post-emergence method, application rate of 0.1 kg or less of active substance per hectare, visual scoring after about 3 to 4 weeks
Experimental: as §3

Stellaria media [7] = experiment: Post-emergence action against weeds; conditions: post-emergence method, application rate of 0.1 kg or less of active substance per hectare, visual scoring after about 3 to 4 weeks
Experimental: as §3

Veronica persica = experiment: Post-emergence action against weeds; conditions: post-emergence method, application rate of 0.1 kg or less of active substance per hectare, visual scoring after about 3 to 4 weeks
Experimental: as §3

Viola tricolor [8] = experiment: Post-emergence action against weeds; conditions: post-emergence method, application rate of 0.1 kg or less of active substance per hectare, visual scoring after about 3 to 4 weeks
Experimental: as §3

barley = experiment: Compatibility with crop plants; conditions: pre- or post-emergence treatment in the greenhouse; visual scoring four to five weeks after application; even at relatively high application rates
Text: In further tests in the greenhouse, seeds of a relatively large number of crop plants and weeds were placed in sandy loam and covered with soil. Some of the pots were immediately treated as described in section 1, the others were placed in the greenhouse until the plants had developed two to three true leaves and were then sprayed with 2-iodo-N-[(4-methoxy-6-methyl-1,3,5-triazin-2-yl)carbamoyl]benzenesulfonamide and also, for example, the compounds Nos. I-1, I-2, I-3, I-4, I-12, I-18 and 1-19 from Table 1, as described in section 2.

Question: Which results are given for `COc1nc(C)nc(NC(=O)NS(=O)(=O)c2ccccc2I)n1` [2-iodo-N-[(4-methoxy-6-methyl-1,3,5-triazin-2-yl)carbamoyl]benzenesulfonamide]?
Answer: herbicidal activity (Lolium multiflorum [1]): very good herbicidal activity; herbicidal activity (Matricaria inodora [2]): very good herbicidal activity; herbicidal activity (Papaver rhoeas): very good herbicidal activity; herbicidal activity (Stellaria media [3]): very good herbicidal activity; herbicidal activity (Viola tricolor [4]): very good herbicidal activity; herbicidal activity (Abuthilon theophrasti): very good herbicidal activity; herbicidal activity (Amaranthus retroflexus): very good herbicidal activity; herbicidal activity (Ipomoea purpurea): very good herbicidal activity; herbicidal activity (Lolium multiflorum [5]): very good herbicidal activity; herbicidal activity (Matricaria inodora [6]): very good herbicidal activity; herbicidal activity (Stellaria media [7]): very good herbicidal activity; herbicidal activity (Veronica persica): very good herbicidal activity; herbicidal activity (Viola tricolor [8]): very good herbicidal activity; damage to barley (barley): did not damage barley at all or left only marginal traces of damage

Question: How did the herbicidal activity (Lolium multiflorum [1]) turn out when `CC[N+](CC)(CC)CC.COc1nc(C)nc(NC(=O)[N-]S(=O)(=O)c2ccccc2I)n1` [Compound I-12] was run?
Answer: The herbicidal activity was “very good herbicidal activity”.

Question: What about the herbicidal activity (Matricaria inodora [2]) of the same compound?
Answer: The herbicidal activity was “very good herbicidal activity”.

Question: What about the herbicidal activity (Papaver rhoeas) of the same compound?
Answer: Its herbicidal activity is “very good herbicidal activity”.

Question: And the herbicidal activity (Stellaria media [3])?
Answer: Its herbicidal activity is “very good herbicidal activity”.

Question: What about the herbicidal activity (Viola tricolor [4]) of the same compound?
Answer: The herbicidal activity was “very good herbicidal activity”.

Question: What about the herbicidal activity (Abuthilon theophrasti) of the same compound?
Answer: The herbicidal activity was “very good herbicidal activity”.

Question: And the herbicidal activity (Amaranthus retroflexus)?
Answer: Its herbicidal activity is “very good herbicidal activity”.

Question: What about the herbicidal activity (Ipomoea purpurea) of the same compound?
Answer: The herbicidal activity was “very good herbicidal activity”.

Question: And the herbicidal activity (Lolium multiflorum [5])?
Answer: Its herbicidal activity is “very good herbicidal activity”.

Question: And the herbicidal activity (Matricaria inodora [6])?
Answer: The herbicidal activity was “very good herbicidal activity”.

Question: What about the herbicidal activity (Stellaria media [7]) of the same compound?
Answer: Its herbicidal activity is “very good herbicidal activity”.

Question: And the herbicidal activity (Veronica persica)?
Answer: Its herbicidal activity is “very good herbicidal activity”.

Question: What about the herbicidal activity (Viola tricolor [8]) of the same compound?
Answer: Its herbicidal activity is “very good herbicidal activity”.

Question: What about the damage to barley (barley) of the same compound?
Answer: Its damage to barley is “did not damage barley at all or left only marginal traces of damage”.

Question: With `CCCC[N+](CCCC)(CCCC)CCCC.COc1nc(C)nc(NC(=O)[N-]S(=O)(=O)c2ccccc2I)n1` [Compound I-18] as the compound, how does the herbicidal activity (Lolium multiflorum [1]) read?
Answer: Its herbicidal activity is “very good herbicidal activity”.

Question: And the herbicidal activity (Matricaria inodora [2])?
Answer: Its herbicidal activity is “very good herbicidal activity”.

Question: What about the herbicidal activity (Papaver rhoeas) of the same compound?
Answer: Its herbicidal activity is “very good herbicidal activity”.

Question: And the herbicidal activity (Stellaria media [3])?
Answer: The herbicidal activity was “very good herbicidal activity”.

Question: What about the herbicidal activity (Viola tricolor [4]) of the same compound?
Answer: The herbicidal activity was “very good herbicidal activity”.

Question: And the herbicidal activity (Abuthilon theophrasti)?
Answer: The herbicidal activity was “very good herbicidal activity”.

Question: What about the herbicidal activity (Amaranthus retroflexus) of the same compound?
Answer: Its herbicidal activity is “very good herbicidal activity”.

Question: What about the herbicidal activity (Ipomoea purpurea) of the same compound?
Answer: Its herbicidal activity is “very good herbicidal activity”.

Question: And the herbicidal activity (Lolium multiflorum [5])?
Answer: The herbicidal activity was “very good herbicidal activity”.

Question: What about the herbicidal activity (Matricaria inodora [6]) of the same compound?
Answer: Its herbicidal activity is “very good herbicidal activity”.

Question: And the herbicidal activity (Stellaria media [7])?
Answer: The herbicidal activity was “very good herbicidal activity”.

Question: What about the herbicidal activity (Veronica persica) of the same compound?
Answer: Its herbicidal activity is “very good herbicidal activity”.

Question: And the herbicidal activity (Viola tricolor [8])?
Answer: Its herbicidal activity is “very good herbicidal activity”.

Question: And the damage to barley (barley)?
Answer: The damage to barley was “did not damage barley at all or left only marginal traces of damage”.
